Experimental data as given in PubChem BioAssay (NCI).
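Assay format: 96-well plates, 48-hour exposure. The concentration for 50% growth inhibition is given as GI50. Definition used: TGI = concentration required for complete inhibition of growth.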

Columns and labels:
Experiment in all cases: NCI-60 cell line screen, 48 h
LOX IMVI melanoma = system: LOX IMVI melanoma
MCF7 breast = system: MCF7 breast
HOP-92 NSCLC = system: HOP-92 NSCLC
HCT-116 colon = system: HCT-116 colon
CCRF-CEM leukemia = system: CCRF-CEM leukemia
DU-145 prostate = system: DU-145 prostate
HCT-15 colon = system: HCT-15 colon
IGROV1 ovarian = system: IGROV1 ovarian
NCI/ADR-RES ovarian = system: NCI/ADR-RES ovarian
SF-295 CNS = system: SF-295 CNS
KM12 colon = system: KM12 colon
SF-268 CNS = system: SF-268 CNS
ACHN renal = system: ACHN renal
TK-10 renal = system: TK-10 renal
SN12C renal = system: SN12C renal
SF-539 CNS = system: SF-539 CNS
HOP-62 NSCLC = system: HOP-62 NSCLC
A549 NSCLC = system: A549 NSCLC
MOLT-4 leukemia = system: MOLT-4 leukemia
OVCAR-8 ovarian = system: OVCAR-8 ovarian
HL-60(TB) leukemia = system: HL-60(TB) leukemia
CAKI-1 renal = system: CAKI-1 renal
HS 578T breast = system: HS 578T breast
SK-MEL-5 melanoma = system: SK-MEL-5 melanoma
SK-MEL-2 melanoma = system: SK-MEL-2 melanoma
HCC-2998 colon = system: HCC-2998 colon
RPMI-8226 leukemia = system: RPMI-8226 leukemia
OVCAR-4 ovarian = system: OVCAR-4 ovarian
PC-3 prostate = system: PC-3 prostate
SNB-19 CNS = system: SNB-19 CNS
NCI-H226 lung = system: NCI-H226 lung
786-0 renal = system: 786-0 renal
UACC-257 melanoma = system: UACC-257 melanoma
T-47D breast = system: T-47D breast
K-562 leukemia = system: K-562 leukemia
SK-OV-3 ovarian = system: SK-OV-3 ovarian
A498 renal = system: A498 renal
NCI-H23 lung = system: NCI-H23 lung
BT-549 breast = system: BT-549 breast
U251 CNS = system: U251 CNS
SK-MEL-28 melanoma = system: SK-MEL-28 melanoma
MDA-MB-468 breast = system: MDA-MB-468 breast
OVCAR-3 ovarian = system: OVCAR-3 ovarian
RXF 393 renal = system: RXF 393 renal
UACC-62 melanoma = system: UACC-62 melanoma
UO-31 renal = system: UO-31 renal
HT29 colon = system: HT29 colon
NCI-H522 lung = system: NCI-H522 lung
MDA-MB-435 = system: MDA-MB-435
MDA-MB-231 breast = system: MDA-MB-231 breast
NCI-H460 lung = system: NCI-H460 lung
SNB-75 CNS = system: SNB-75 CNS
OVCAR-5 ovarian = system: OVCAR-5 ovarian
SW-620 colon = system: SW-620 colon
EKVX NSCLC = system: EKVX NSCLC
SR leukemia = system: SR leukemia
COLO 205 colon = system: COLO 205 colon
M14 melanoma = system: M14 melanoma
MALME-3M melanoma = system: MALME-3M melanoma

CC1(C)CC[C@]2(C(=O)O)CC[C@]3(C)C(=CCC4[C@@]5(C)C[C@@H](O)[C@@H]6OC(c7ccco7)OC[C@@]6(C)C5CC[C@]43C)C2C1 (stereo partly drawn)
GI50 (LOX IMVI melanoma): 5.69 µM
TGI (LOX IMVI melanoma): 19.1 µM
GI50 (MCF7 breast): 8.83 µM
TGI (MCF7 breast): 36.4 µM
GI50 (HOP-92 NSCLC): 5.97 µM
TGI (HOP-92 NSCLC): 22.7 µM
GI50 (HCT-116 colon): 5.01 µM
TGI (HCT-116 colon): 18.4 µM
GI50 (CCRF-CEM leukemia): 5.21 µM
TGI (CCRF-CEM leukemia): 30.3 µM
GI50 (DU-145 prostate): 11.6 µM
TGI (DU-145 prostate): 85 µM
GI50 (HCT-15 colon): 3.32 µM
TGI (HCT-15 colon): 15.8 µM
GI50 (IGROV1 ovarian): 11.7 µM
TGI (IGROV1 ovarian): 28 µM
GI50 (NCI/ADR-RES ovarian): 6.62 µM
TGI (NCI/ADR-RES ovarian): 32.3 µM
GI50 (SF-295 CNS): 5.3 µM
TGI (SF-295 CNS): 19.1 µM
GI50 (KM12 colon): 5.84 µM
TGI (KM12 colon): 23.4 µM
GI50 (SF-268 CNS): 10.7 µM
TGI (SF-268 CNS): 31.8 µM
GI50 (ACHN renal): 0.111 µM
TGI (ACHN renal): 14.5 µM
GI50 (TK-10 renal): 16.4 µM
TGI (TK-10 renal): 68.9 µM
GI50 (SN12C renal): 11.8 µM
TGI (SN12C renal): 26.2 µM
GI50 (SF-539 CNS): 13.3 µM
TGI (SF-539 CNS): 26.4 µM
GI50 (HOP-62 NSCLC): 7.06 µM
TGI (HOP-62 NSCLC): 28.7 µM
GI50 (A549 NSCLC): 3.2 µM
TGI (A549 NSCLC): 20.2 µM
GI50 (MOLT-4 leukemia): 4.75 µM
TGI (MOLT-4 leukemia): 33.7 µM
GI50 (OVCAR-8 ovarian): 10.3 µM
TGI (OVCAR-8 ovarian): 61.5 µM
GI50 (HL-60(TB) leukemia): 9.31 µM
TGI (HL-60(TB) leukemia): 43.4 µM
GI50 (CAKI-1 renal): 21.3 µM
TGI (CAKI-1 renal): 83.3 µM
GI50 (HS 578T breast): 11.1 µM
TGI (HS 578T breast): 45.2 µM
GI50 (SK-MEL-5 melanoma): 0.304 µM
TGI (SK-MEL-5 melanoma): 1.2 µM
GI50 (SK-MEL-2 melanoma): 0.417 µM
TGI (SK-MEL-2 melanoma): 13.7 µM
GI50 (HCC-2998 colon): 6.35 µM
TGI (HCC-2998 colon): 20.4 µM
GI50 (RPMI-8226 leukemia): 5.62 µM
TGI (RPMI-8226 leukemia): 71.2 µM
GI50 (OVCAR-4 ovarian): 16.6 µM
TGI (OVCAR-4 ovarian): 63.4 µM
GI50 (PC-3 prostate): 9.27 µM
TGI (PC-3 prostate): > 100 µM
GI50 (SNB-19 CNS): 3.97 µM
TGI (SNB-19 CNS): 21.8 µM
GI50 (NCI-H226 lung): 11.7 µM
TGI (NCI-H226 lung): 36.1 µM
GI50 (786-0 renal): 18.9 µM
TGI (786-0 renal): 64.7 µM
GI50 (UACC-257 melanoma): 0.208 µM
TGI (UACC-257 melanoma): 0.913 µM
GI50 (T-47D breast): 15.6 µM
TGI (T-47D breast): > 100 µM
GI50 (K-562 leukemia): 4.81 µM
TGI (K-562 leukemia): > 100 µM
GI50 (SK-OV-3 ovarian): 27.1 µM
TGI (SK-OV-3 ovarian): > 100 µM
GI50 (A498 renal): 14.1 µM
TGI (A498 renal): 30.8 µM
GI50 (NCI-H23 lung): 9.31 µM
TGI (NCI-H23 lung): 23.2 µM
GI50 (BT-549 breast): 6.78 µM
TGI (BT-549 breast): 21.4 µM
GI50 (U251 CNS): 1.47 µM
TGI (U251 CNS): 16.9 µM
GI50 (SK-MEL-28 melanoma): 0.22 µM
TGI (SK-MEL-28 melanoma): 15.7 µM
GI50 (MDA-MB-468 breast): 0.11 µM
TGI (MDA-MB-468 breast): 6.03 µM
GI50 (OVCAR-3 ovarian): 9.25 µM
TGI (OVCAR-3 ovarian): 23 µM
GI50 (RXF 393 renal): 13 µM
TGI (RXF 393 renal): 26.5 µM
GI50 (UACC-62 melanoma): 0.312 µM
TGI (UACC-62 melanoma): 12.5 µM
GI50 (UO-31 renal): 6.95 µM
TGI (UO-31 renal): 21.1 µM
GI50 (HT29 colon): 12.8 µM
TGI (HT29 colon): 41.5 µM
GI50 (NCI-H522 lung): 10.6 µM
TGI (NCI-H522 lung): 28.1 µM
GI50 (MDA-MB-435): 0.475 µM
TGI (MDA-MB-435): 15.4 µM
GI50 (MDA-MB-231 breast): 16.2 µM
TGI (MDA-MB-231 breast): 32.3 µM
GI50 (NCI-H460 lung): 6.45 µM
TGI (NCI-H460 lung): 19.9 µM
GI50 (SNB-75 CNS): 6.35 µM
TGI (SNB-75 CNS): 30.2 µM
GI50 (OVCAR-5 ovarian): 16.4 µM
TGI (OVCAR-5 ovarian): 30.6 µM
GI50 (SW-620 colon): 11.2 µM
TGI (SW-620 colon): 25.4 µM
GI50 (EKVX NSCLC): 5.05 µM
TGI (EKVX NSCLC): 21.9 µM
GI50 (SR leukemia): 9.92 µM
TGI (SR leukemia): 51.4 µM
GI50 (COLO 205 colon): 0.11 µM
TGI (COLO 205 colon): 0.263 µM
GI50 (M14 melanoma): 0.416 µM
TGI (M14 melanoma): 16.8 µM
GI50 (MALME-3M melanoma): 0.191 µM
TGI (MALME-3M melanoma): 0.894 µM
